IC50 data for 27 molecules are collected here from patent publication US20260217711A1, “TRIAZOLOPYRIDINYL ETHER LINKED COMPOUNDS AS KINASE INHIBITORS” (Bristol-Myers Squibb Company, priority 2023, published 2026).

For the first experiment, the system named is MLKL phosphorylation (pMLKL) in HT29-L23 cells. The experiment in a line: MLKL Phosphorylation High-Content Assay. As to conditions: Homo sapiens, 6 h, necroptosis induced with human TNFα, SMAC mimetic and Z-VAD, read-out: LE pMLKL HC IC50. Format: cell-based. The essentials: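 HT29-L23 cells incubated 6 h at 37° C before detection of phospho-MLKL by immunostaining with anti-phospho-MLKL antibody (1:1000 in PBS/0.1% BSA, overnight at 4° C). Readout by high-content imaging with compartmental image analysis.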
As for `Nc1nc2cc(-c3cccc(OCCC(F)(F)Cc4ccccc4)c3F)ccn2n1` [Example 74, 7-(3-(3,3-difluoro-4-phenylbutoxy)-2-fluorophenyl)-[1,2,4]triazolo[1,5-a]pyridin-2-amine], the IC50 is 0.005 µM.
`CC(O)(c1cccnc1)C(F)(F)CCOc1c(F)ccc(-c2ccn3nc(N)nc3c2)c1F` (single isomer, unassigned) [Example 36, 5-(3-(2-amino-[1,2,4]triazolo[1,5-a]pyridin-7-yl)-2,6-difluorophenoxy)-3,3-difluoro-2-(pyridin-3-yl)pentan-2-ol]: the IC50 was 0.005 µM.
On to `CC(O)(c1ccc(F)cc1)C(F)(F)CCOc1cccc(-c2ccn3nc(N)nc3c2)c1F` (racemic) [Example 73, 5-(3-(2-amino-[1,2,4]triazolo[1,5-a]pyridin-7-yl)-2-fluorophenoxy)-3,3-difluoro-2-(4-fluorophenyl)pentan-2-ol], for which the IC50 turned out to be 0.0005 µM.

Staying with this experiment, now noted: necroptosis induced with human TNFα, SMAC mimetic and Z-VAD, 6 h, read-out: LE pMLKL HC IC50.
`CC(O)(c1ccc(F)cc1)C(F)CCOc1cccc(-c2ccn3nc(N)nc3c2)c1F` (single isomer, unassigned) [Example 89, 5-(3-(2-amino-[1,2,4]triazolo[1,5-a]pyridin-7-yl)-2-fluorophenoxy)-3-fluoro-2-(4-fluorophenyl)pentan-2-ol]: the IC50 came to 0.015 µM.
For the molecule `Nc1nc2cc(-c3ccc(C(F)(F)F)c(OCCC(F)C(O)c4ccc(F)cc4)c3F)ccn2n1` (single isomer, unassigned) [Example 111, 4-(3-(2-amino-[1,2,4]triazolo[1,5-a]pyridin-7-yl)-2-fluoro-6-(trifluoromethyl)phenoxy)-2-fluoro-1-(4-fluorophenyl)butan-1-ol], the IC50 turned out to be 0.029 µM.
With `Nc1nc2cc(-c3cc(F)c(F)c(OCCC(F)C(O)c4ccc(F)cc4)c3)ccn2n1` (single isomer, unassigned) [Example 116, 4-(5-(2-amino-[1,2,4]triazolo[1,5-a]pyridin-7-yl)-2,3-difluorophenoxy)-2-fluoro-1-(4-fluorophenyl)butan-1-ol], the IC50 stood at 0.055 µM.
For the molecule `Nc1nc2cc(-c3cc(F)c(F)c(OCCC(F)C(O)c4ccc(F)cc4)c3)ccn2n1` (single isomer, unassigned) [Example 119, 4-(5-(2-amino-[1,2,4]triazolo[1,5-a]pyridin-7-yl)-2,3-difluorophenoxy)-2-fluoro-1-(4-fluorophenyl)butan-1-ol], the IC50 is 0.58 µM.
Consider `CC(O)(c1ccc(F)cc1)C(F)(F)CCOc1ccc(Cl)c(-c2ccn3nc(N)nc3c2)n1` (single isomer, unassigned) [Example 79, 5-((6-(2-amino-[1,2,4]triazolo[1,5-a]pyridin-7-yl)-5-chloropyridin-2-yl)oxy)-3,3-difluoro-2-(4-fluorophenyl)pentan-2-ol], for which the IC50 amounted to 0.16 µM.
`CC(O)(c1ccc(Cl)cc1)C(F)(F)CCOc1cccc(-c2ccn3nc(N)nc3c2)c1F` (single isomer, unassigned) [Example 47, 5-(3-(2-amino-[1,2,4]triazolo[1,5-a]pyridin-7-yl)-2-fluorophenoxy)-2-(4-chlorophenyl)-3,3-difluoropentan-2-ol]: the half-maximal inhibitory concentration (IC50) is 0.023 µM.
`Cc1ccc(-c2ccn3nc(N)nc3c2)c(F)c1OCCC(F)C(C)(O)c1ccc(F)cc1` (single isomer, unassigned) [Example 114, 5-(3-(2-amino-[1,2,4]triazolo[1,5-a]pyridin-7-yl)-2-fluoro-6-methylphenoxy)-3-fluoro-2-(4-fluorophenyl)pentan-2-ol]: the IC50 came to 0.0001 µM.
The same measure, in the same setting: the result for `CC(CC(F)(F)C(C)(O)c1ccc(F)cc1)Oc1c(F)ccc(-c2ccn3nc(N)nc3c2)c1F` (single isomer, unassigned) [Example 126, 5-(3-(2-amino-[1,2,4]triazolo[1,5-a]pyridin-7-yl)-2,6-difluorophenoxy)-3,3-difluoro-2-(4-fluorophenyl)hexan-2-ol] reads 0.37 µM.
`COc1ccc(-c2ccn3nc(N)nc3c2)c(F)c1OCCC(F)(F)C(C)(O)c1ccc(F)cc1` (single isomer, unassigned) [Example 19, 5-(3-(2-amino-[1,2,4]triazolo[1,5-a]pyridin-7-yl)-2-fluoro-6-methoxyphenoxy)-3,3-difluoro-2-(4-fluorophenyl)pentan-2-ol]: the half-inhibitory concentration (IC50) amounted to 0.0004 µM.
Consider `Cc1ccc(-c2ccn3nc(N)nc3c2)c(F)c1OCCC(F)C(O)c1ccc(F)cc1` (single isomer, unassigned) [Example 106, 4-(3-(2-amino-[1,2,4]triazolo[1,5-a]pyridin-7-yl)-2-fluoro-6-methylphenoxy)-2-fluoro-1-(4-fluorophenyl)butan-1-ol], for which the IC50 was 0.003 µM.
As to `CC(O)(c1ccc(F)cc1)C(F)(F)CCOc1c(C(F)F)ccc(-c2ccn3nc(N)nc3c2)c1F` (single isomer, unassigned) [Example 26, 5-(3-(2-amino-[1,2,4]triazolo[1,5-a]pyridin-7-yl)-6-(difluoromethyl)-2-fluorophenoxy)-3,3-difluoro-2-(4-fluorophenyl)pentan-2-ol], the IC50 turned out to be 0.0003 µM.
In the case of `CC(O)(c1ccc(F)cc1)C(F)(F)CCOc1cc(-c2ccn3nc(N)nc3c2)ccc1F` (single isomer, unassigned) [Example 57, 5-(5-(2-amino-[1,2,4]triazolo[1,5-a]pyridin-7-yl)-2-fluorophenoxy)-3,3-difluoro-2-(4-fluorophenyl)pentan-2-ol], the IC50 worked out at 0.13 µM.
For the molecule `CC(C)CC(O)C(F)(F)CCOc1cccc(-c2ccn3nc(N)nc3c2)c1F` (single isomer, unassigned) [Example 7, 1-(3-(2-amino-[1,2,4]triazolo[1,5-a]pyridin-7-yl)-2-fluorophenoxy)-3,3-difluoro-6-methylheptan-4-ol], the IC50 is 0.16 µM.
Turning to `CC(O)(c1ccc(Cl)cc1)C(F)(F)CCOc1cccc(-c2ccn3nc(N)nc3c2)c1F` (single isomer, unassigned) [Example 48, 5-(3-(2-amino-[1,2,4]triazolo[1,5-a]pyridin-7-yl)-2-fluorophenoxy)-2-(4-chlorophenyl)-3,3-difluoropentan-2-ol], the IC50 came to 0.0001 µM.
Turning to `Nc1nc2cc(-c3ccc(C(F)(F)F)c(OCCC(F)C(O)c4ccc(F)cc4)c3F)ccn2n1` (single isomer, unassigned) [Example 112, 4-(3-(2-amino-[1,2,4]triazolo[1,5-a]pyridin-7-yl)-2-fluoro-6-(trifluoromethyl)phenoxy)-2-fluoro-1-(4-fluorophenyl)butan-1-ol], the IC50 came to 0.73 µM.
Consider `Nc1nc2cc(-c3ccc(Cl)c(OCCC(F)(F)C(O)c4ccc(F)cc4)c3F)ccn2n1` (single isomer, unassigned) [Example 60, 4-(3-(2-amino-[1,2,4]triazolo[1,5-a]pyridin-7-yl)-6-chloro-2-fluorophenoxy)-2,2-difluoro-1-(4-fluorophenyl)butan-1-ol], for which the IC50 is 0.005 µM.
Turning to `CC(O)(c1ccc(F)cc1)C(F)(F)CCOc1cc(-c2ccn3nc(N)nc3c2)ccc1F` (single isomer, unassigned) [Example 58, 5-(5-(2-amino-[1,2,4]triazolo[1,5-a]pyridin-7-yl)-2-fluorophenoxy)-3,3-difluoro-2-(4-fluorophenyl)pentan-2-ol], the IC50 was determined as 0.005 µM.
Turning to `CC(O)(c1ccc(F)cc1)C(F)CCOc1cccc(-c2ccn3nc(N)nc3c2)c1F` (single isomer, unassigned) [Example 90, 5-(3-(2-amino-[1,2,4]triazolo[1,5-a]pyridin-7-yl)-2-fluorophenoxy)-3-fluoro-2-(4-fluorophenyl)pentan-2-ol], the IC50 is 0.003 µM.
Take `Cc1ccc(-c2ccn3nc(N)nc3c2)c(F)c1OCCC(F)C(C)(O)c1ccc(F)cc1` (single isomer, unassigned) [Example 115, 5-(3-(2-amino-[1,2,4]triazolo[1,5-a]pyridin-7-yl)-2-fluoro-6-methylphenoxy)-3-fluoro-2-(4-fluorophenyl)pentan-2-ol]: the IC50 is 0.0026 µM.
On the same count and under the same terms, for `CC(N)(c1ccc(F)cc1)C(F)(F)CCOc1c(F)ccc(-c2ccn3nc(N)nc3c2)c1F` (single isomer, unassigned) [Example 16, 7-(3-((4-amino-3,3-difluoro-4-(4-fluorophenyl)pentyl)oxy)-2,4-difluorophenyl)-[1,2,4]triazolo[1,5-a]pyridin-2-amine] the value was 0.02 µM; for `CC(CC(F)(F)C(C)(O)c1ccc(F)cc1)Oc1c(F)ccc(-c2ccn3nc(N)nc3c2)c1F` (single isomer, unassigned) [Example 128, 5-(3-(2-amino-[1,2,4]triazolo[1,5-a]pyridin-7-yl)-2,6-difluorophenoxy)-3,3-difluoro-2-(4-fluorophenyl)hexan-2-ol], 0.17 µM.
For the molecule `CC(O)(c1ccc(Cl)cc1)C(F)(F)CCOc1c(F)ccc(-c2ccn3nc(N)nc3c2)c1F` (single isomer, unassigned) [Example 45, 5-(3-(2-amino-[1,2,4]triazolo[1,5-a]pyridin-7-yl)-2,6-difluorophenoxy)-2-(4-chlorophenyl)-3,3-difluoropentan-2-ol], the IC50 was found to be 0.08 µM.
On to `Nc1nc2cc(-c3ccc(F)c(OCCC(F)C(O)c4ccc(F)cc4)c3F)ccn2n1` (single isomer, unassigned) [Example 103, 4-(3-(2-amino-[1,2,4]triazolo-[1,5-a]pyridin-7-yl)-2,6-difluorophenoxy)-2-fluoro-1-(4-fluorophenyl)butan-1-ol], for which the 50% inhibitory concentration (IC50) was found to be 0.0015 µM.
Take `CC(O)(c1ccc(F)cc1)C(F)(F)CCOc1c(F)ccc(-c2ccc3nc(N)nn3c2)c1F` (single isomer, unassigned) [Example 75, 5-(3-(2-amino-[1,2,4]triazolo[1,5-a]pyridin-6-yl)-2,6-difluorophenoxy)-3,3-difluoro-2-(4-fluorophenyl)pentan-2-ol]: the IC50 was found to be 0.2 µM.
